Source: patent US9751869B2, “LXR modulators” (BRISTOL-MYERS SQUIBB COMPANY, priority 2013, dated 2017)

Target: T1, LXRβ (Homo sapiens, UniProt P55055)
T1 construct: Co-transfection expression plasmids, comprising full-length LXRα (pCMX-h LXRα or LXRβ (pCMX-hLXRβ)); expressed in transfected cells; host or cells: CV-1 African green monkey kidney cells, transient transfection with pCMX-hLXRβ
T1 sequence (P55055 1-460): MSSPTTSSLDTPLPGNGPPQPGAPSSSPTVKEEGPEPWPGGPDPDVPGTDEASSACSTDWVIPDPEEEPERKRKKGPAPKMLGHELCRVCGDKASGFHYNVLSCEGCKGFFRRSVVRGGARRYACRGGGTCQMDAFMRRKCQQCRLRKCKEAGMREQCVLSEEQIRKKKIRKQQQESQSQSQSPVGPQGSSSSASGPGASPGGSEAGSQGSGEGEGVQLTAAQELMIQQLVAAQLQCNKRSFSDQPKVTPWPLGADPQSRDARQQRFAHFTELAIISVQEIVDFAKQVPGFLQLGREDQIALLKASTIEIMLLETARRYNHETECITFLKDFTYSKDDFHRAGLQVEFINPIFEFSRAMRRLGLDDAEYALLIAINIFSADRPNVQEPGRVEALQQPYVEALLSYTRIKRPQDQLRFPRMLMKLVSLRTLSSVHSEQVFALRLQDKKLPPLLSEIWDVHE
T1 sequence (P19793 1-462 partner): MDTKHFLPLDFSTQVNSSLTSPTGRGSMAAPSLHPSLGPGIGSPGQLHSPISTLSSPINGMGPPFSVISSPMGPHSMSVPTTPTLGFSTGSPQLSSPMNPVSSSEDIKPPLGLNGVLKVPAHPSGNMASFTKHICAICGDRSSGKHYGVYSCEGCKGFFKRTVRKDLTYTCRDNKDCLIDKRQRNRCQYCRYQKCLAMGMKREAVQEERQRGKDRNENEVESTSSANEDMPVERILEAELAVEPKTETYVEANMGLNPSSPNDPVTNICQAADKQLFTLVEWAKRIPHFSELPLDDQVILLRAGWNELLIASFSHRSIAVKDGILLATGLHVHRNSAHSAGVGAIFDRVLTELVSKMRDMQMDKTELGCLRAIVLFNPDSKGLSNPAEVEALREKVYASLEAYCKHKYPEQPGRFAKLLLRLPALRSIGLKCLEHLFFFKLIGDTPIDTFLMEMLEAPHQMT
Assay: LXR/LXRE co-transfection assay (luciferase reporter) in CV-1 cells, LXRβ
Assay type: cell-based
Details: for EC50: CV-1 cells transfected with pCMX-hLXRβ and LXREx1-Tk-Luciferase, 20 hours incubation, read-out: LXRbeta agonism EC50; for Emax: CV-1 cells, relative to maximum response of high control N-(3-((4-fluorophenyl)-(naphthalene-2-sulfonyl)amino)propyl)-2,2-dimethylpropionamide, read-out: LXRbeta % EFFICACY
In short: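 Luciferase read-out after 20 h compound treatment at 37 °C of CV-1 cells carrying transfected hLXRβ plus one-copy LXRE reporter, endogenous RXR partnering. Sigmoidal fit of 10-point half-log curves (4 wells each) gave EC50; % efficacy versus maximal response of the propionamide reference agonist.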

EC50 [nM]	Emax [%]	SMILES
21	76	Cc1nc(-c2cc(F)c(OC(F)F)c(F)c2)c(-c2cc(-c3cccc(S(C)(=O)=O)c3)ccc2-n2cc(Cl)c(C(F)(F)F)n2)o1 [Example 421]
185	67	Cc1nc(-c2cc(-c3cccc(C(C)(C)C(N)=O)c3)ccc2-n2nc(C(F)(F)F)cc2Cl)c(-c2ccc(OC(F)(F)F)cc2)o1 [Example 404, 2-(4′-(5-chloro-3-(trifluoromethyl)-1H-pyrazol-1-yl)-3′-(2-methyl-5-(4-(trifluoromethoxy)phenyl)oxazol-4-yl)biphenyl-3-yl)-2-methylpropanamide]
100	63	Cc1nc(-c2cc(-c3cc(F)c(CO)c(S(C)(=O)=O)c3)ccc2-n2nc(C(F)(F)F)cc2Cl)c(-c2ccc(OC(F)(F)F)cc2)o1 [Example 405, (4′-(5-chloro-3-(trifluoromethyl)-1H-pyrazol-1-yl)-3-fluoro-3′-(2-methyl-5-(4-(trifluoromethoxy)phenyl)oxazol-4-yl)-5-(methylsulfonyl)biphenyl-4-yl)methanol]
19	90	Cc1nc(-c2cc(-c3cc(F)c(CO)c(S(C)(=O)=O)c3)ccc2-n2nc(C(F)(F)F)cc2Cl)c(-c2ccc3c(c2)OC(F)(F)O3)o1 [Example 411, (4′-(5-chloro-3-(trifluoromethyl)-1H-pyrazol-1-yl)-3′-(5-(2,2-difluorobenzo[d][1,3]dioxol-5-yl)-2-methyloxazol-4-yl)-3-fluoro-5-(methylsulfonyl)biphenyl-4-yl)methanol]
170	63	CNS(=O)(=O)c1cccc(-c2ccc(-n3cc(Cl)c(C(F)(F)F)n3)c(-c3oc(C)nc3-c3cnc(OC)nc3)c2)c1 [Example 445, 4′-(4-chloro-3-(trifluoromethyl)-1H-pyrazol-1-yl)-3′-(4-(2-methoxypyrimidin-5-yl)-2-methyloxazol-5-yl)-N-methyl-[1,1′-biphenyl]-3-sulfonamide]
42	71	Cc1nc(-c2cc(-c3cccc(S(C)(=O)=O)c3)ccc2-n2nc(C(F)(F)F)cc2C)c(-c2ccc(OC(F)(F)F)cc2)o1 [Example 385, 2-methyl-4-(4-(5-methyl-3-(trifluoromethyl)-1H-pyrazol-1-yl)-3′-(methylsulfonyl)biphenyl-3-yl)-5-(4-(trifluoromethoxy)phenyl) oxazole]

Continued, compound first:

SMILES	EC50 [nM]	Emax [%]
Cc1nc(-c2cc(-c3cc(F)c(CO)c(S(C)(=O)=O)c3)ccc2-n2nc(C(F)(F)F)cc2C)c(-c2ccc(OC(F)F)cc2)o1 [Example 384, (3′-(5-(4-(difluoromethoxy)phenyl)-2-methyloxazol-4-yl)-3-fluoro-4′-(5-methyl-3-(trifluoromethyl)-1H-pyrazol-1-yl)-5-(methylsulfonyl)biphenyl-4-yl)methanol]	15	73
Cc1nc(-c2ccc(OC(F)(F)F)cc2)c(-c2cc(-c3cc(F)c(CO)c(S(C)(=O)=O)c3)ccc2-c2cc(C(F)(F)F)nn2C)o1 [Example 93, (3-fluoro-4′-(1-methyl-3-(trifluoromethyl)-1H-pyrazol-5-yl)-3′-(2-methyl-4-(4-(trifluoromethoxy)phenyl)oxazol-5-yl)-5-(methylsulfonyl)biphenyl-4-yl)methanol]	16	93
Cc1nc(-c2ccc3c(c2)OC(F)(F)O3)c(-c2cc(-c3cc(F)c(CO)c(S(C)(=O)=O)c3)ccc2-c2cc(C(C)(C)c3nnco3)nn2C)o1 [Example 68, (4′-(3-(2-(1,3,4-oxadiazol-2-yl)propan-2-yl)-1-methyl-1H-pyrazol-5-yl)-3′-(4-(2,2-difluorobenzo[d][1,3]dioxol-5-yl)-2-methyloxazol-5-yl)-3-fluoro-5-(methylsulfonyl)biphenyl-4-yl)methanol]	29	51
Cn1nc(C(F)(F)C(C)(C)O)cc1-c1ccc(-c2cc(F)c(CO)c(S(C)(=O)=O)c2)cc1-n1nncc1-c1ccc(OC(F)(F)F)cc1 [Example 3, 1,1-difluoro-1-(5-(3′-fluoro-4′-(hydroxymethyl)-5′-(methylsulfonyl)-3-(5-(4-(trifluoromethoxy)phenyl)-1H-1,2,3-triazol-1-yl)biphenyl-4-yl)-1-methyl-1H-pyrazol-3-yl)-2-methylpropan-2-ol]	245	73
Cc1nc(-c2ccc3c(c2)OC(F)(F)O3)c(-c2cc(-c3cccc(S(C)(=O)=O)c3)ccc2-c2cc(C(=O)NC3CC3)nn2C)o1 [Example 107, N-cyclopropyl-5-(3-(4-(2,2-difluorobenzo[d][1,3]dioxol-5-yl)-2-methyloxazol-5-yl)-3′-(methylsulfonyl)-[1,1′-biphenyl]-4-yl)-1-methyl-1H-pyrazole-3-carboxamide]	1250	37
Cc1cc(C(F)(F)F)nn1-c1ccc(-c2cccc(S(C)(=O)=O)c2)cc1-n1nncc1-c1ccc(OC(F)(F)F)cc1 [Example 300, 1-{3′-(methylsulfonyl)-4-[5-methyl-3-(trifluoromethyl)-1H-pyrazol-1-yl]biphenyl-3-yl}-5-{4-[(trifluoromethyl)oxy]phenyl}-1H-1,2,3-triazole]	153	99
Cc1nc(-c2ccc3c(c2)OC(F)(F)O3)c(-c2cc(-c3cccc(S(C)(=O)=O)c3)ccc2-c2cc(CC(C)(C)O)nn2C)o1 [Example 121, 1-(5-(3-(4-(2,2-difluorobenzo[d][1,3]dioxol-5-yl)-2-methyloxazol-5-yl)-3′-(methylsulfonyl)-[1,1′-biphenyl]-4-yl)-1-methyl-1H-pyrazol-3-yl)-2-methylpropan-2-ol]	175	40
CC(O)C(F)(F)c1cc(-c2ccc(-c3cc(F)c(CO)c(S(C)(=O)=O)c3)cc2-n2nncc2-c2ccc(OC(F)(F)F)cc2)n(C)n1 (centres unmarked) [Example 6, 1,1-difluoro-1-(5-(3′-fluoro-4′-(hydroxymethyl)-5′-(methylsulfonyl)-3-(5-(4-(trifluoromethoxy)phenyl)-1H-1,2,3-triazol-1-yl)biphenyl-4-yl)-1-methyl-1H-pyrazol-3-yl)propan-2-ol]	252	84
Cc1nc(-c2cc(-c3cc(F)c(CO)c(S(C)(=O)=O)c3)ccc2-c2cc(C(C)(C)C(C)(C)O)nn2C)c(-c2ccc3c(c2)OC(F)(F)O3)o1 [Example 64, 3-(5-(3-(5-(2,2-difluorobenzo[d][1,3]dioxol-5-yl)-2-methyloxazol-4-yl)-3′-fluoro-4′-(hydroxymethyl)-5′-(methylsulfonyl)biphenyl-4-yl)-1-methyl-1H-pyrazol-3-yl)-2,3-dimethylbutan-2-ol]	24	42
Cc1nc(-c2ccc3c(c2)OC(F)(F)O3)c(-c2cc(-c3cccc(S(C)(=O)=O)c3)ccc2-c2cc(-c3nnco3)nn2C)o1 [Example 100, 2-(5-(3-(4-(2,2-difluorobenzo[d][1,3]dioxol-5-yl)-2-methyloxazol-5-yl)-3′-(methylsulfonyl)-[1,1′-biphenyl]-4-yl)-1-methyl-1H-pyrazol-3-yl)-1,3,4-oxadiazole]	193	52
Cc1nc(-c2ccc(OC(F)(F)F)cc2)c(-c2cc(-c3cccc(S(C)(=O)=O)c3)ccc2-n2ccc(C#N)n2)o1 [Example 318, 1-(3-(2-methyl-4-(4-(trifluoromethoxy)phenyl)oxazol-5-yl)-3′-(methylsulfonyl)biphenyl-4-yl)-1H-pyrazole-3-carbonitrile]	246	84
Cc1nc(-c2cc(-c3cccc(S(C)(=O)=O)c3)ccc2-n2nc(C(F)(F)F)cc2C2CC2)c(-c2ccc(OC(F)(F)F)cc2)o1 [Example 312, 4-(4-(5-cyclopropyl-3-(trifluoromethyl)-1H-pyrazol-1-yl)-3′-(methylsulfonyl)biphenyl-3-yl)-2-methyl-5-(4-(trifluoromethoxy)phenyl)oxazole]	798	34
Cc1nc(-c2ccc3c(c2)OC(F)(F)O3)c(-c2cc(-c3cccc(S(C)(=O)=O)c3)ccc2-c2cc(C(F)(F)CO)nn2C)o1 [Example 106, 2-(5-(3-(4-(2,2-difluorobenzo[d][1,3]dioxol-5-yl)-2-methyloxazol-5-yl)-3′-(methylsulfonyl)-[1,1′-biphenyl]-4-yl)-1-methyl-1H-pyrazol-3-yl)-2,2-difluoroethanol]	71	64
